Values joined by “and” are separate entries in the source; they are usually repeats but may differ in a detail not shown here. Equal values may be shown once.
Assays:
human CYP2C19 [1] = molecular target: T1, human CYP2C19 (Homo sapiens, UniProt P33261); assay: Steady-state kinetics of tenatoprazole oxidation by recombinant CYP2C19; format: in vitro ADME
T1 construct: made in house; host or cells: Escherichia coli (membrane fractions)
Protocol: Pooled liver microsomes from human samples were obtained from ThermoFisher Scientific (Waltham, MA, USA). […] Membrane fractions expressing both P450 and CPR of E. coli were prepared as described previously and were used for the catalytic activity assays. […] The reaction was started by adding NGS and the incubation was continued for the indicated time at 37 °C. Incubation was then stopped by adding ice-chilled ethyl acetate (0.50 mL) and omeprazole (IS) was added to a final concentration of 20 μM. […] Phenomenex, Torrance, CA, USA). The products formed were analyzed by HPLC at […]. […] The kinetic parameters (kcat and Km) were determined by using a Michaelis-Menten nonlinear regression analysis with GraphPad Prism (GraphPad Software, San Diego, CA, USA).

[2] = parameters: method as in PMID 23205582; details: compared with other PPIs such as lansoprazole and omeprazole; cited from earlier work
[3] = test system: human liver microsomes (HLMs); assay: Time course of oxidation of tenatoprazole and tenatoprazole sulfide by human liver microsomes (HPLC); format: in vitro ADME; details: for tenatoprazole remained: substrate tenatoprazole 500 μM
Protocol: A racemate of tenatoprazole was used in this work because the chiral tenatoprazoles currently are not commercially available. The reactions using HLMs contained incubation at 37 °C in 0.25 mL mixtures containing P450 (0.5 mg protein/mL) in 100 mM potassium phosphate buffer (pH 7.4), an NADPH-generating system (NGS, final concentration of 10 mM glucose-6-phosphate, 0.50 mM NADP^+, 1.0 IU yeast glucose-6-phosphate dehydrogenase per mL), and 0.1 mM of tenatoprazole or tenatoprazole sulfide. Incubations generally were performed for 2 h in the presence or absence of the NGS. Tenatoprazole and its metabolites were extracted twice using cold ethyl acetate as an organic solvent. Then centrifugation (1000× g, 20 min) was done to separate the organic layer from the aqueous layer. Omeprazole was added to this solution as an internal standard (IS) at a final 20 μM concentration. The organic layer was concentrated under nitrogen gas stream. The dried residues were then dissolved in the mobile phase (180 μL) and 30 μL was injected onto the column.
High-performance liquid chromatography (HPLC) was performed on the basis of a previously developed method for tenatoprazole and its metabolites, as described elsewhere. The analytical column was a Gemini C18 column (4.6 × 150 mm, 5 μm; Phenomenex), and the HPLC mobile phase consisted of acetonitrile and 5 mM potassium phosphate buffer (pH 7.3) (25:75, v/v). The substrate and its metabolites were detected at A302. The HPLC profile of the authentic compounds (i.e., tenatoprazole and its metabolites) were measured to compare to identify the major metabolites of tenatoprazole and tenatoprazole sulfide produced by HLMs.
The time course of the oxidation of tenatoprazole and tenatoprazole sulfide by HLMs (0.5 mg protein/mL) was analyzed to the estimated yield of metabolites and percentage of each metabolite using 0.60 mM substrate in 0.25 mL of 0.10 M potassium phosphate buffer (pH 7.4). After NGS was added to initiate the reaction, the samples were incubated for the designated time (i.e., 2, 5, 10, and 30 min, and 1, 2, 4, 8, 12, and 24 h) at 37 °C. Product formation was quantified using HPLC analysis, as mentioned above.
Calibration standard curves of tenatoprazole were made using a blank control sample (a reaction mixture without substrate and IS) and 12 samples containing tenatoprazole and omeprazole (IS) covering the concentration ranges of 1–500 μM, as described previously. The peak area ratio of tenatoprazole to IS was linear with respect to the analyte concentration over the range of 1–500 μM. The metabolites were quantified by comparing the peak areas of each metabolite to the mean peak areas of the IS (20 μM omeprazole).

human CYP2C19 [4] = molecular target: T1, human CYP2C19; parameters: method as in earlier work; details: in vitro; cited from earlier work
human CYP3A4 = molecular target: T2, human CYP3A4 (Homo sapiens, UniProt P08684); assay: Sulfoxidation of tenatoprazole sulfide by recombinant CYP3A4 (chiral chromatography); format: in vitro ADME; details: substrate tenatoprazole sulfide, recombinant CYP3A4, chiral chromatography; label = product formed
T2 construct: made in house; host or cells: Escherichia coli (membrane fractions)
Protocol: The sulfoxidation reaction of tenatoprazole sulfide by CYP3A4 was measured by chiral chromatography. […] The reaction was initiated by adding NGS at 37 °C. […] After the residues were solubilized in 180 μL mobile phase, 30 μL samples were injected onto a Chiralpak AD column (4.6 × 150 mm, 10 μm; Daicel Corporation, Osaka, Japan) with a hexane-ethanol mixture (30:70, v/v) as the mobile phase. The products formed were analyzed by HPLC at […]. […] The kinetic parameters (kcat and Km) were determined by using a Michaelis-Menten nonlinear regression analysis with GraphPad Prism (GraphPad Software, San Diego, CA, USA).

[5] = parameters: method as in PMID 27640009; details: neutral pH; cited from earlier work
CYP1A2 = molecular target: T3, CYP1A2 (Homo sapiens, UniProt P05177); assay: Tenatoprazole oxidation by recombinant CYP1A2; format: in vitro ADME; details: substrate tenatoprazole 0.10 mM, 0.20 μM CYP1A2; no apparent formation
T3 construct: made in house; host or cells: Escherichia coli (membrane fractions)
T3 sequence (P05177 1-516): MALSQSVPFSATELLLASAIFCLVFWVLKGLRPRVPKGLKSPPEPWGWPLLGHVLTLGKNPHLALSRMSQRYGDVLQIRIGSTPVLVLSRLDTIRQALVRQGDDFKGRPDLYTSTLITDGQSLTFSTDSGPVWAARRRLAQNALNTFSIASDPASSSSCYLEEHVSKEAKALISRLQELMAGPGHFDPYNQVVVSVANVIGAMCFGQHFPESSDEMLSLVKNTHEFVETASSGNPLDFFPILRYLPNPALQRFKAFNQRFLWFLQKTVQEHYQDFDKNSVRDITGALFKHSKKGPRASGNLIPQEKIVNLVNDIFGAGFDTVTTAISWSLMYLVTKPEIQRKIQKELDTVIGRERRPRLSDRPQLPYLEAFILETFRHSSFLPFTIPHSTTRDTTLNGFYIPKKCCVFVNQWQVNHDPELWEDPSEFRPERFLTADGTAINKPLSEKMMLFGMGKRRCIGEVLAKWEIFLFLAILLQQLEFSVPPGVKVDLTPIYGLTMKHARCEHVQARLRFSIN
Protocol: (§1) Pooled liver microsomes from human samples were obtained from ThermoFisher Scientific (Waltham, MA, USA). Recombinant human P450s were heterologously expressed in Escherichia coli with a pCW vector containing human P450 cDNA (CYP 3A4, 2C9, 2C19, 1A2, 1B1, 2E1, 2D6, and 2A6) and rat NADPH-P450 reductase (CPR). Membrane fractions expressing both P450 and CPR of E. coli were prepared as described previously and were used for the catalytic activity assays.
(§2) The reaction mixture included 0.20 μM P450, 0.40 μM CPR, and tenatoprazole (0.10 mM) in 0.25 mL of 0.10 M potassium phosphate buffer (pH 7.4). The reaction was started by adding NGS and the incubation was continued for the indicated time at 37 °C. Incubation was then stopped by adding ice-chilled ethyl acetate (0.50 mL) and omeprazole (IS) was added to a final concentration of 20 μM. The mixtures were vortexed for 2 min, centrifuged at 1000× g for 20 min, and then the organic layer was taken for drying under nitrogen gas stream. The residues were dissolved in 180 μL of HPLC mobile phase and 30 μL was injected onto a Gemini C18 column (4.6 × 150 mm, 5 μm; Phenomenex, Torrance, CA, USA). The products formed were analyzed by HPLC at A302. The HPLC profile of the authentic chemicals (i.e., tenatoprazole, tenatoprazole sulfide, and their metabolites) were used to identify the major metabolites of tenatoprazole and tenatoprazole sulfide produced by the recombinant P450s.
(§3) Figure S6. HPLC analyses of the products derived from the oxidation of tenatoprazole catalyzed by recombinant human P450s. The reaction mixture included 0.20 μM P450, 0.40 μM CPR, and 0.10 mM tenatoprazole in 0.25 mL of potassium phosphate buffer (0.10 M, pH 7.4). The reaction was started by adding an NGS at 37 °C for 60 min. (A) CYP1A2; (B) CYP1B1; (C) CYP2A6; (D) CYP2C9; (E) CYP2D6; (F) CYP2E1. The arrows with solid and broken lines indicate the retention times of 5’-OH tenatoprazole (6.6 min) and 5’-OH tenatoprazole sulfide (8.4 min), respectively.
(§4) (1 picture or pasted object on this page, not shown here)

CYP2E1 = molecular target: T4, CYP2E1 (Homo sapiens, UniProt P05181); assay: Tenatoprazole oxidation by recombinant CYP2E1; format: in vitro ADME; details: substrate tenatoprazole 0.10 mM, 0.20 μM CYP2E1; no apparent formation
T4 construct: made in house; host or cells: Escherichia coli (membrane fractions)
Protocol: as §1, §2, §3, §4

CYP2C9 = molecular target: T5, CYP2C9 (Homo sapiens, UniProt P11712); assay: Tenatoprazole oxidation by recombinant CYP2C9; format: in vitro ADME; details: substrate tenatoprazole 0.10 mM, 0.20 μM CYP2C9
T5 construct: made in house; host or cells: Escherichia coli (membrane fractions)
Protocol: as §1
as §2, with “The HPLC profile of the authentic chemicals (i.e., tenatoprazole, tenatoprazole sulfide, and their metabolites) were used to identify the major metabolites of tenatoprazole and tenatoprazole sulfide produced by the recombinant P450s.” left out

CYP1B1 = molecular target: T6, CYP1B1 (Homo sapiens, UniProt Q16678); assay: Tenatoprazole oxidation by recombinant CYP1B1; format: in vitro ADME; details: substrate tenatoprazole 0.10 mM, 0.20 μM CYP1B1; no apparent formation
T6 construct: made in house; host or cells: Escherichia coli (membrane fractions)
T6 sequence (Q16678 1-543): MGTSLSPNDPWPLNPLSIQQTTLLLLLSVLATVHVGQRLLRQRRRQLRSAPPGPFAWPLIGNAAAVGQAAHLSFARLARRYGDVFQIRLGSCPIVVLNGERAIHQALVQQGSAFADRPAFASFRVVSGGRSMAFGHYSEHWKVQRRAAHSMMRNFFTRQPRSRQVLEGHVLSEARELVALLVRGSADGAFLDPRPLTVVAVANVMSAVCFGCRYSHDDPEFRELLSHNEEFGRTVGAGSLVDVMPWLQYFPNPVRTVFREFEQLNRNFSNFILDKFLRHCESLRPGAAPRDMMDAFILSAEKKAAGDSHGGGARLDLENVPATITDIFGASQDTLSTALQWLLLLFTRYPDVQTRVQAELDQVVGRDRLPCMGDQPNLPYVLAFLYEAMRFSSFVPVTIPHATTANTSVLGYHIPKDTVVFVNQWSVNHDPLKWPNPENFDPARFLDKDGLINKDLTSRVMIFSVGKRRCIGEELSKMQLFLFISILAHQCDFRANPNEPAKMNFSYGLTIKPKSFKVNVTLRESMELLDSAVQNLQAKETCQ
Protocol: as §1, §2, §3, §4

CYP2A6 = molecular target: T7, CYP2A6 (Homo sapiens, UniProt P11509); assay: Tenatoprazole oxidation by recombinant CYP2A6; format: in vitro ADME; details: substrate tenatoprazole 0.10 mM, 0.20 μM CYP2A6; no apparent formation
T7 construct: made in house; host or cells: Escherichia coli (membrane fractions)
T7 sequence (P11509 1-494): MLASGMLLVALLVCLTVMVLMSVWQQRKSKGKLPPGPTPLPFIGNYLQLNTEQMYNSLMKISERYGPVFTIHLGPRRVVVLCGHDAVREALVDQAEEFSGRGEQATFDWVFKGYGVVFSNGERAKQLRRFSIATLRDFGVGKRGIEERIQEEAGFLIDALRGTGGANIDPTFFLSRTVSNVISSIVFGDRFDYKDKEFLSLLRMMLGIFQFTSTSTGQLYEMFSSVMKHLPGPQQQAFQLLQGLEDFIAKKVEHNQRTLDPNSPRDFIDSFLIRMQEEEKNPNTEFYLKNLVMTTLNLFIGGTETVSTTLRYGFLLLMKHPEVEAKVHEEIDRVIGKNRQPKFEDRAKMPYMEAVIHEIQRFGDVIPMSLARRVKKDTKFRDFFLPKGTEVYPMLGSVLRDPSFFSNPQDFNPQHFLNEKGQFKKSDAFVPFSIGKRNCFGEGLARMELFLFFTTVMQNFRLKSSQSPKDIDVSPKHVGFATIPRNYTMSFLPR
Protocol: as §1, §2, §3, §4

CYP2D6 = molecular target: T8, CYP2D6 (Homo sapiens, UniProt P10635); assay: Tenatoprazole oxidation by recombinant CYP2D6; format: in vitro ADME; details: substrate tenatoprazole 0.10 mM, 0.20 μM CYP2D6
T8 construct: made in house; host or cells: Escherichia coli (membrane fractions)
Protocol: as §1
as §2, with “The HPLC profile of the authentic chemicals (i.e., tenatoprazole, tenatoprazole sulfide, and their metabolites) were used to identify the major metabolites of tenatoprazole and tenatoprazole sulfide produced by the recombinant P450s.” left out

T1 sequence (P33261 whole entry): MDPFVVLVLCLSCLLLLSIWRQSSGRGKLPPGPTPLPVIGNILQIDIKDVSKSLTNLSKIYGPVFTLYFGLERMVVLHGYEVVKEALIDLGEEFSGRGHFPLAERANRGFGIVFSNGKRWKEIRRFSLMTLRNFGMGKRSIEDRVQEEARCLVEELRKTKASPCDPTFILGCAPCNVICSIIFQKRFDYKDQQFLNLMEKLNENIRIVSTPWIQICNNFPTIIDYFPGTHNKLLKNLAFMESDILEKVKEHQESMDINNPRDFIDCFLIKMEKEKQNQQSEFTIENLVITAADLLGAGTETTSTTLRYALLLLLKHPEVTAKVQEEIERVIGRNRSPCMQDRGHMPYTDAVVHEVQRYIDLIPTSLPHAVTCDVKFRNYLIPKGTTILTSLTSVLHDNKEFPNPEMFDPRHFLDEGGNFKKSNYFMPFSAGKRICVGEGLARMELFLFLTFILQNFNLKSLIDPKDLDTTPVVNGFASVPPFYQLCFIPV
T2 sequence (P08684 whole entry): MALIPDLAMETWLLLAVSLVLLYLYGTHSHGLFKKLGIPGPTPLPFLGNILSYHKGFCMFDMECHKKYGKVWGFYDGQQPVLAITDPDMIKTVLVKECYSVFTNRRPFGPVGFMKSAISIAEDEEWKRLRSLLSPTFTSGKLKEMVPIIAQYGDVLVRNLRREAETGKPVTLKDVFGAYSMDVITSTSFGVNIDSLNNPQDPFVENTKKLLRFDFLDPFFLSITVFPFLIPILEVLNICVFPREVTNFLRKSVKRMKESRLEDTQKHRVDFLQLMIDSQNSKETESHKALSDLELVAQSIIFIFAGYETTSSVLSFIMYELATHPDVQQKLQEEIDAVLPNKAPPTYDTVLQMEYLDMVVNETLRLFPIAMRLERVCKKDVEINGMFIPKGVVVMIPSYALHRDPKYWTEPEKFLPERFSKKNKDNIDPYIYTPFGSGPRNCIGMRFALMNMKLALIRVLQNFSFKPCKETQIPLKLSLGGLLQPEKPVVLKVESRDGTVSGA
T4 sequence (P05181 whole entry): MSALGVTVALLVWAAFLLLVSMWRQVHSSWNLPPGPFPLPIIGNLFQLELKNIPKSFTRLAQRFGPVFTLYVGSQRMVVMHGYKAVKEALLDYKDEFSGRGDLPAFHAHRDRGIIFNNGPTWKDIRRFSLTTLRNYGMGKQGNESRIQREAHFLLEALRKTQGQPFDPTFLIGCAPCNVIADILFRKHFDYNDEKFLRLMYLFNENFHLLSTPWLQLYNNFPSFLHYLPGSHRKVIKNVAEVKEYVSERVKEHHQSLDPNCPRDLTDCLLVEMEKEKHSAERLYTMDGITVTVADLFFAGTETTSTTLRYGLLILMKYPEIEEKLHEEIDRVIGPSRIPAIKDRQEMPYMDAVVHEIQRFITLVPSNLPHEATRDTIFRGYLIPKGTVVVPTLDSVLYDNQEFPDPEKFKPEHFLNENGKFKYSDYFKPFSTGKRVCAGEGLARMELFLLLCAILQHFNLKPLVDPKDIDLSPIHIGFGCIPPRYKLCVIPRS
T5 sequence (P11712 whole entry): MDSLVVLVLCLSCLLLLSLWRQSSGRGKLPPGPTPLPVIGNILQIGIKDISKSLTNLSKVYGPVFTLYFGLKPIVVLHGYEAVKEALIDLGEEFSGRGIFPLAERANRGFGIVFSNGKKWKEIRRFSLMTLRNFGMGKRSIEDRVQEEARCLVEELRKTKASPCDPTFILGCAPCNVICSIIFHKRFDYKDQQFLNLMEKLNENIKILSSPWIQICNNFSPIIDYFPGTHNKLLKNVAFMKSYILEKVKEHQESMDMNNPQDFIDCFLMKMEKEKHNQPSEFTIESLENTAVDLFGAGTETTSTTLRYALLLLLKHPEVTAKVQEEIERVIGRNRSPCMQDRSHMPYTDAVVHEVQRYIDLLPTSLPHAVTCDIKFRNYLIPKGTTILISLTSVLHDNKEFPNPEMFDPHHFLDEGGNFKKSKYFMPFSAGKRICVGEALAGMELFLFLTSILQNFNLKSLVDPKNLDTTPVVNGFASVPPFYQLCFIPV
T8 sequence (P10635 whole entry): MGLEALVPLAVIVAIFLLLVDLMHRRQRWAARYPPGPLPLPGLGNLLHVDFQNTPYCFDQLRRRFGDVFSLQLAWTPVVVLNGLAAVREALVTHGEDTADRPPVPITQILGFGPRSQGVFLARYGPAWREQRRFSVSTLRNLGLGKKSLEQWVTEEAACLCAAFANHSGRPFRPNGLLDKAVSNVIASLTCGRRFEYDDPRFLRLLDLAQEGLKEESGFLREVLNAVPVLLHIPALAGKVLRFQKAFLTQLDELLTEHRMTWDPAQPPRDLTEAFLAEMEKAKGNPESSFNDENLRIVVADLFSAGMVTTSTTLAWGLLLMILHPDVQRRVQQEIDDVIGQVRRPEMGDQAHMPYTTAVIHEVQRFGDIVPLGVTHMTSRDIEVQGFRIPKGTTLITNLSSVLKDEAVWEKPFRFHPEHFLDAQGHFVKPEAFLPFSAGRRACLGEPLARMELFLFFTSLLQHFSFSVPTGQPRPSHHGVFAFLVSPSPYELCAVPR

COc1ccc2[nH]c([S+]([O-])Cc3ncc(C)c(OC)c3C)nc2n1 (stereo not drawn) [tenatoprazole, Tenatoprazole]
sulfoxidation of tenatoprazole by CYP2C19 (human CYP2C19 [1]; recombinant CYP2C19, substrate tenatoprazole): did not catalyze
plasma half-life, times longer than those of other PPI drugs [2]: ~7 times
tenatoprazole remained ([3]; HLM reaction mixture without NADPH, after 12 h): 4.4%
tenatoprazole remained ([3]; HLMs, presence of NADPH, 12 h of incubation, 37 °C): 1.0%
product formed from tenatoprazole sulfide (% of substrate) ([3]; substrate tenatoprazole sulfide 500 μM, HLMs, presence of NADPH, after 12 h): 0.49%

COc1ccc2[nH]c([S@@+]([O-])Cc3ncc(C)c(OC)c3C)nc2n1 [S-tenatoprazole]
rate of metabolism of S-isomer relative to R-isomer (human CYP2C19 [4]): around seven times more slowly
kcat of product formation (human CYP3A4): 0.045 s⁻¹ and 0.045 ± 0.0033 s⁻¹

COc1ccc2[nH]c([S+]([O-])Cc3ncc(C)c(OC)c3C)nc2c1 (stereo not drawn) [omeprazole, Omeprazole]
spontaneous or nonenzymatic degradation to omeprazole sulfide [5]: not spontaneously or nonenzymatically degraded

COc1ccc2[nH]c(SCc3ncc(CO)c(OC)c3C)nc2n1 [5′-OH tenatoprazole sulfide]
formation rate of metabolite (CYP1A2): < 0.05 nmol product/min/nmol P450
kcat of product formation (human CYP2C19 [1]; substrate tenatoprazole (1–500 μM), recombinant CYP2C19 0.20 μM, 37 °C, 5 min, label = product formed): 0.0333 s⁻¹ and 0.0333 ± 0.0017 s⁻¹
formation rate of metabolite (CYP2E1): < 0.05 nmol product/min/nmol P450
formation rate of metabolite (CYP2C9): 0.1 min⁻¹
formation rate of metabolite (CYP1B1): < 0.05 nmol product/min/nmol P450
formation rate of metabolite (CYP2A6): < 0.05 nmol product/min/nmol P450
formation rate of metabolite (CYP2D6): 0.3 min⁻¹

Source: paper PMC9863764, “Roles of Human Liver Cytochrome P450 Enzymes in Tenatoprazole Metabolism” (Pharmaceutics, 2022)
